Test results reported in patent publication US20090239840A1, “AMINO SUBSTITUTED DIARYL[a,d]CYCLOHEPTENE ANALOGS AS [sequence] AGONISTS AND METHODS OF TREATMENT OF NEUROPSYCHIATRIC DISORDERS” (ACADIA PHARMACEUTICALS, INC., priority 2003, published 2009).

Tests used:
[1] = biological target: T1, muscarinic M2 receptor (Homo sapiens, UniProt P08172); assay: R-SAT functional screen, M2; format: cell-based; conditions: R-SAT; for Emax: read-out: M2 eff (efficacy); for EC50: read-out: M2 pEC50 (converted)
T1 construct: expressed in transfected cells
T1 sequence (P08172 1-466): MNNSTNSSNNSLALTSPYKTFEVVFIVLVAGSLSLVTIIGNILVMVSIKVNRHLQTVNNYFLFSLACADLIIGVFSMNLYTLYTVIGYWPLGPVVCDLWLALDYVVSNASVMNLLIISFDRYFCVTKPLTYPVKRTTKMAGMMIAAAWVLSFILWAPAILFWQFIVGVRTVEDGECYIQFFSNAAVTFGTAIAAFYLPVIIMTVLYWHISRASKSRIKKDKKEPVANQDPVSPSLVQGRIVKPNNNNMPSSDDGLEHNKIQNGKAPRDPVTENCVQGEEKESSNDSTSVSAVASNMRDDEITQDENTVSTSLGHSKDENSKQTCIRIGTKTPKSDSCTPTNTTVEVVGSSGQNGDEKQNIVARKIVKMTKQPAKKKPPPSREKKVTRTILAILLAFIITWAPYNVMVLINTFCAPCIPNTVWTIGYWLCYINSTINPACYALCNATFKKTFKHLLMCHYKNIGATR
Method: (§1) Several compounds disclosed herein were evaluated for activity at muscarinic receptors using Receptor Selection and Amplification Technology (R-SAT) as described in U.S. Pat. No. 5,707,798, the disclosure of which is incorporated herein by reference in its entirety. The efficacy (eff) and potency (expressed as pEC50) of these compounds are presented in Table 1 at M1, M2, and M3 receptors.

[2] = biological target: T2, muscarinic M1 receptor (Homo sapiens, UniProt P11229); assay: R-SAT functional screen, M1; format: cell-based; conditions: R-SAT; for Emax: read-out: M1 eff (efficacy); for EC50: read-out: M1 pEC50 (converted)
T2 construct: expressed in transfected cells
T2 sequence (P11229 1-460): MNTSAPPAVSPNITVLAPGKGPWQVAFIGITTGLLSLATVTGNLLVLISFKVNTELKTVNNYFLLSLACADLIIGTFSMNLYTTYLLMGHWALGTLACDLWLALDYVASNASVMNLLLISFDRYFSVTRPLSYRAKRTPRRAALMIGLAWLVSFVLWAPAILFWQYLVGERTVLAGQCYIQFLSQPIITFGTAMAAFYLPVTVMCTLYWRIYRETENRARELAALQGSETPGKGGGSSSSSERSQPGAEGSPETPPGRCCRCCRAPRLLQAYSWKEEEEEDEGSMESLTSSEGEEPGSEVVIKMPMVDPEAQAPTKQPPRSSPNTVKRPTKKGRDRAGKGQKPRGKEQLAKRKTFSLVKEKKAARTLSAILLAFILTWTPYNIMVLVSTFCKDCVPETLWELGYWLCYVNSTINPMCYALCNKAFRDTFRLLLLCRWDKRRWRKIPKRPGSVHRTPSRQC
Method: as §1

What does the source list for Cc1ccc2c(c1)N=C(N1CCNCC1)c1cccc(C)c1O2 [4,8-Dimethyl-11-(piperazin-1-yl)-dibenzo[b,f][1,4]oxazepine]?
Emax [1]: 46%; EC50 [1]: 794 nM

With Clc1ccc2c(c1)N=C(NC1CCNC1)c1ccccc1N2 (stereo not shown) [(8-Chloro-5H-dibenzo[b,e][1,4]diazepin-11-yl)-pyrrolidin-3-yl-amine] as the molecule, how does the Emax [2] read?
Its Emax is 10%.

What about the Emax [1] of the same molecule?
The Emax was 18%.

What does the source list for Clc1ccc2c(c1)N=C(N1CCNCC1)c1cc(I)ccc1N2 [2-Iodo-8-chloro-11-(piperazin-1-yl)-5H-dibenzo[b,e][1,4]diazepine]?
Emax [2]: 3%; Emax [1]: 10%

Which Emax [1] does the source give for c1ccc2c(c1)N=C(N1CCNCC1)c1ccccc1O2 [11-(piperazin-1-yl)-dibenzo[b,f][1,4]oxazepine] here?
Its Emax is 58%.

And the EC50 [1]?
Its EC50 is 2000 nM.

What does the source list for c1ccc(-c2ccc3c(c2)N=C(N2CCNCC2)c2ccccc2N3)cc1 [8-Phenyl-11-(piperazin-1-yl)-5H-dibenzo[b,e][1,4]diazepine]?
Emax [1]: 104%; EC50 [1]: 2000 nM

What does the source list for Clc1ccc2c(c1)Oc1ccccc1C(N1CCNCC1)=N2 [7-Chloro-11-(piperazin-1-yl)-dibenzo[b,f][1,4]oxazepine]?
Emax [1]: 53%; EC50 [1]: 1260 nM

For FC(F)(F)c1ccc2c(c1)N=C(N1CCNCC1)c1ccc(Cl)cc1N2 [3-Chloro-11-(piperazin-1-yl)-8-trifluoromethyl-5H-dibenzo[b,e][1,4]diazepine], which Emax [2] is on record?
Its Emax is 11%.

How did the Emax [2] turn out when CCN(CC)CCNC1=Nc2cc(Cl)ccc2Nc2ccccc21 [N′-(8-Chloro-5H-dibenzo[b,e][1,4]diazepine-11-yl)-N,N-diethyl-ethane-1,2-diamine] was run?
The Emax was 6%.

And the Emax [1]?
The Emax was 9%.

Which Emax [1] does the source give for COc1ccc2c(c1)Oc1ccc(Cl)cc1N=C2N1CCNCC1 [8-Chloro-3-methoxy-11-(piperazin-1-yl)-dibenzo[b,f][1,4]oxazepine] here?
The Emax was 19%.

For CN(C)CCNC1=Nc2cc(F)ccc2Nc2ccccc21 [N′-(8-Fluoro-5H-dibenzo[b,e][1,4]diazepine-11-yl)-N,N-dimethyl-ethane-1,2-diamine], which Emax [2] is on record?
The Emax was 7%.

And the Emax [1]?
The Emax was 21%.

With C=CCN1c2ccc(Cl)cc2N=C(N2CCNCC2)c2ccccc21 [5-Allyl-8-chloro-11-(piperazin-1-yl)-5H-dibenzo[b,e][1,4]diazepine] as the molecule, how does the Emax [2] read?
The Emax was 12%.

What about the Emax [1] of the same molecule?
The Emax was 46%.

What about the EC50 [1] of the same molecule?
The EC50 was 1580 nM.

Which Emax [2] does the source give for CN(C)CCNC1=Nc2cc(Cl)ccc2Nc2ccccc21 [N′-(8-Chloro-5H-dibenzo[b,e][1,4]diazepine-11-yl)-N,N-dimethyl-ethane-1,2-diamine] here?
The Emax was 4%.

And the Emax [1]?
The Emax was 11%.

Which results are given for Cc1ccc2c(c1)C(N1CCNCC1)=Nc1ccc(Cl)cc1N2 [7-Chloro-2-methyl-11-(piperazin-1-yl)-5H-dibenzo[b,e][1,4]diazepine]?
Emax [2]: -3%; Emax [1]: 5%

What does the source list for Clc1ccc2c(c1)N=C(NC[C@@H]1CCCN1)c1ccccc1N2 [(8-Chloro-5H-dibenzo[b,e][1,4]diazepin-11-yl)-(S)-1-pyrrolidin-2-yl-methyl-amine]?
Emax [2]: 77%; EC50 [2]: 501 nM; Emax [1]: 23%

Which results are given for Cc1ccc2c(c1)N=C(N1CCNCC1)c1ccccc1N2 [8-Methyl-11-(piperazin-1-yl)-5H-dibenzo[b,e][1,4]diazepine]?
Emax [2]: 49%; EC50 [2]: 158 nM; Emax [1]: 98%; EC50 [1]: 1000 nM

Which Emax [1] does the source give for COc1ccc2c(c1)Oc1ccc(Br)cc1N=C2N1CCNCC1 [8-Bromo-3-methoxy-11-(piperazin-1-yl)-dibenzo[b,f][1,4]oxazepine] here?
The Emax was 21%.

Which Emax [1] does the source give for Clc1cccc2c1Nc1ccccc1C(N1CCNCC1)=N2 [6-Chloro-11-(piperazin-1-yl)-5H-dibenzo[b,e][1,4]diazepine] here?
Its Emax is 71%.

With Clc1ccc2c(c1)N=C(N1CCNCC1)c1c(Cl)cccc1N2 [1,8-Dichloro-11-(piperazin-1-yl)-5H-dibenzo[b,e][1,4]diazepine] as the molecule, how does the Emax [1] read?
The Emax was 84%.

What about the EC50 [1] of the same molecule?
Its EC50 is 2000 nM.

What does the source list for COc1ccc2c(c1)Oc1ccc(F)cc1N=C2N1CCNCC1 [8-Fluoro-3-methoxy-11-(piperazin-1-yl)-dibenzo[b,f][1,4]oxazepine]?
Emax [1]: 49%; EC50 [1]: 2510 nM

Which results are given for Cc1cccc2c1Oc1cc(Cl)ccc1N=C2N1CCNCC1 [7-Chloro-4-methyl-11-(piperazin-1-yl)-dibenzo[b,f][1,4]oxazepine]?
Emax [1]: 28%; EC50 [1]: 398 nM

For Clc1ccc2c(c1)N=C(N1CCNCC1)c1cc(Br)ccc1O2 [2-Bromo-8-chloro-11-(piperazin-1-yl)-dibenzo[b,f][1,4]oxazepine], which Emax [1] is on record?
The Emax was 13%.

For COc1ccc2c(c1)Oc1ccc(C(F)(F)F)cc1N=C2N1CCNCC1 [3-Methoxy-11-(piperazin-1-yl)-8-trifluoromethyl-dibenzo[b,f][1,4]oxazepine], which Emax [1] is on record?
Its Emax is 17%.

For Cc1ccc2c(c1)N=C(N1CCNCC1)c1cc(Br)ccc1O2 [2-Bromo-8-methyl-11-(piperazin-1-yl)-dibenzo[b,f][1,4]oxazepine], which Emax [1] is on record?
The Emax was 17%.

COc1ccc2c(c1)Oc1ccccc1N=C2N1CCNCC1 [3-Methoxy-11-(piperazin-1-yl)-dibenzo[b,f][1,4]oxazepine] was tested. Which Emax [1] did it give?
Its Emax is 45%.

What about the EC50 [1] of the same molecule?
The EC50 was 2510 nM.

Clc1ccc2c(c1)N=C(NC1CNC1)c1ccccc1N2 [Acetidin-3-yl-(8-chloro-5H-dibenzo[b,e][1,4]diazepine-11-yl)amine] was tested. Which Emax [1] did it give?
Its Emax is 17%.

FC(F)(F)c1ccc2c(c1)N=C(N1CCNCC1)c1cc(Br)ccc1O2 [2-Bromo-11-(piperazin-1-yl)-8-trifluoromethyl-dibenzo[b,f][1,4]oxazepine] was tested. Which Emax [1] did it give?
The Emax was 11%.

For Fc1ccc2c(c1)N=C(N1CCNCC1)c1cc(Br)ccc1O2 [2-Bromo-8-fluoro-11-(piperazin-1-yl)-dibenzo[b,f][1,4]oxazepine], which Emax [1] is on record?
The Emax was 21%.

What does the source list for COc1ccc2c(c1)Oc1ccc(C)cc1N=C2N1CCNCC1 [3-Methoxy-8-methyl-11-(piperazin-1-yl)-dibenzo[b,f][1,4]oxazepine]?
Emax [1]: 45%; EC50 [1]: 3160 nM

For Brc1ccc2c(c1)C(N1CCNCC1)=Nc1ccccc1O2 [2-Bromo-11-(piperazin-1-yl)-dibenzo[bf][1,4]oxazepine], which Emax [1] is on record?
The Emax was 9%.

How did the Emax [1] turn out when COc1ccc2c(c1)Oc1cc(Cl)ccc1N=C2N1CCNCC1 [7-Chloro-3-methoxy-11-(piperazin-1-yl)-dibenzo[b,f][1,4]oxazepine] was run?
The Emax was 44%.

And the EC50 [1]?
The EC50 was 1000 nM.

With Cc1cccc2c1Oc1ccccc1N=C2N1CCNCC1 [4-Methyl-11-(piperazin-1-yl)-dibenzo[b,f][1,4]oxazepine] as the molecule, how does the Emax [1] read?
Its Emax is 22%.

Cc1ccc2c(c1)N=C(N1CCNCC1)c1ccccc1O2 [8-Methyl-11-(piperazin-1-yl)-dibenzo[b,f][1,4]oxazepine] was tested. Which Emax [1] did it give?
Its Emax is 76%.

What about the EC50 [1] of the same molecule?
Its EC50 is 3160 nM.

Which Emax [1] does the source give for Brc1ccc2c(c1)N=C(N1CCNCC1)c1cc(Br)ccc1O2 [2,8-Dibromo-11-(piperazin-1-yl)-dibenzo[b,f][1,4]oxazepine] here?
Its Emax is 6%.

Which results are given for Cc1cccc2c1Oc1ccc(Br)cc1N=C2N1CCNCC1 [8-Bromo-4-methyl-11-(piperazin-1-yl)-dibenzo[b,f][1,4]oxazepine]?
Emax [1]: 48%; EC50 [1]: 1580 nM

For c1ccc(-c2ccc3c(c2)N=C(N2CCNCC2)c2ccccc2O3)cc1 [8-Phenyl-11-(piperazin-1-yl)-dibenzo[b,f][1,4]oxazepine], which Emax [1] is on record?
The Emax was 33%.

And the EC50 [1]?
Its EC50 is 1260 nM.

Clc1ccc2c(c1)Oc1ccc(Br)cc1C(N1CCNCC1)=N2 [2-Bromo-7-chloro-11-(piperazin-1-yl)-dibenzo[b,f][1,4]oxazepine] was tested. Which Emax [1] did it give?
The Emax was 15%.

With FC(F)(F)c1ccc2c(c1)N=C(N1CCNCC1)c1ccccc1O2 [11-(piperazin-1-yl)-8-trifluoromethyl-dibenzo[b,f][1,4]oxazepine] as the molecule, how does the Emax [1] read?
Its Emax is 58%.

And the EC50 [1]?
The EC50 was 1260 nM.
